Source: patent US5770623A, “Argine antagonists for inhibition of systemic hypotension associated with nitric oxide production or endothelial derived relaxing factor” (Board of Regents, The University of Texas System, priority 1995, dated 1998)
Like-named read-outs stand apart in the source and are kept apart here.

Key:
rabbit aortic rings = experiment: ACh-induced relaxation of isolated rabbit aortic rings; details: isolated rabbit aortic rings, FIG. 9b
Source text: FIG. 9b compares concentration-response relationships for the same set of mono- and disubstituted arginine analogs as FIG. 9a, plus an additional dimethyl analog with the two methyl groups on different guanidino nitrogens. The test is for inhibition of ACh-induced vasorelaxation in isolated rabbit aortic rings. The points plotted represent means±S.E. of the maximum responses to ACh observed in the presence of the indicated concentrations of analogs (n=4).
Guinea pig pulmonary artery (GP PA), rat and rabbit aorta (Ao), and dog coronary (CA) and femoral artery (FA) were precontracted with NE (1 μM) and relaxed with a single concentration of ACh. Concentration of ACh: GP PA 1 μM, rat Ao […], rabbit Ao 0.3, dog CA […] and […] 0.1 μM. […] The concentrations of L-citrulline (L-cit), D-arginine (D-arg) and L-arginine (L-arg) were all 0.5 mM. Bars are mean values±SEM (n=4-6).
FIG. 11 contains representative physiograph tracings which depict ACh-induced relaxation of NE-preconstricted rings prepared from rabbit aorta (upper panel) and human internal mammary artery (lower panel).

[1] = tested on: murine endothelial cells exposed to Gamma-Interferon and TNF (nitric oxide production); experiment: Inhibition of nitrite production by MBEC exposed to IFN (100 U/ml) and TNF (500 U/ml); format: cell-based; details: for IC50: Mus musculus, Endothelial cell, 48 h, read-out: ED50% (effective dose that inhibited 50% of the nitrite production); for potency ranking as inhibitor of nitric oxide production: analogs of Table 5
Description: Endothelial cells--MBEC's were isolated from murine brain microvessels and cultured on gelatin-coated tissue culture dishes in DME/F12 media supplemented with 2% PPPHS, 5% FBS (Hyolone), 50 μg/ml ECGF (Biomed Tech), and 10 U/ml heparin (Sigma) as previously described (Belloni et al. 1989). The endothelial derivation of MBEC's was determined by the presence of a non-thrombogenic surface to platelets and immunofluorescent staining for Factor VIII related antigen. MBEC's were used between passage 6-9 for all experiments.
Nitrite Assay--MBE cells were cultured on gelatin-coated well plates (Corning) in 100 μl of culture medium and treated with cytokines at 3 days post-confluence. After 48 hours, nitrite production was determined by a colorimetric assay. […] All treatments were performed in triplicate and data presented as the mean value±standard deviation. […]
production by murine endothelial cells exposed to GammaInterferon (100
U/ml) and TNF (500 U/ml) in vitro.

[2] = tested on: guinea pig pulmonary artery rings; experiment: Relaxation of preconstricted guinea pig pulmonary artery rings; details: for inhibition of EDRF/NO synthesis: guinea pig pulmonary artery rings, 1 μM NE, ACh
[3] = tested on: bovine aortic endothelial cells (BAEC); experiment: A23187-stimulated nitrite release from bovine aortic endothelial cells; format: cell-based; details: 2-hr, L-arginine-free medium, FIG. 9a
Description: The % inhibition of relaxation is calculated from the maximum ACh-induced relaxation observed in the presence of the arginine analog relative to that in its absence. Points represent mean values±SEM (n=4-6). […] Another N^G substitution tested for inhibition of induced nitrite release had two methyl groups on one of the arginine guanidino nitrogens. Concentration-response relationships for inhibition of A23187-stimulated nitrite release by bovine aortic endothelial cells (BAEC) are shown in FIG. 9a for the N,N-disubstituted derivative in comparison with several monosubstituted derivatives. Nitrite production was measured as an indication of nitric oxide synthesis since nitric oxide spontaneously decays to nitrite. Nitrite production by BAEC in a 2-hr. period was assessed in an L-arginine-free medium alone or in the presence of the indicated concentration of arginine analogs. The points plotted represent means±S.E. of the percent inhibition of nitrite production observed in 3 individual BAEC culture wells. The key on FIG. 9a indicates the groups substituted on the guanidino nitrogens of L-arginine.
Points are mean values±SEM (n=3).

[4] = biological target: EMT6 enzyme system (NO formation from L-arginine) (Mus musculus, UniProt P29477); experiment: Arginine-dependent nitrite synthesis by cytosol of stimulated EMT6 cells; format: biochemical, murine
Chain of EMT6 enzyme system (NO formation from L-arginine) (P29477 whole entry): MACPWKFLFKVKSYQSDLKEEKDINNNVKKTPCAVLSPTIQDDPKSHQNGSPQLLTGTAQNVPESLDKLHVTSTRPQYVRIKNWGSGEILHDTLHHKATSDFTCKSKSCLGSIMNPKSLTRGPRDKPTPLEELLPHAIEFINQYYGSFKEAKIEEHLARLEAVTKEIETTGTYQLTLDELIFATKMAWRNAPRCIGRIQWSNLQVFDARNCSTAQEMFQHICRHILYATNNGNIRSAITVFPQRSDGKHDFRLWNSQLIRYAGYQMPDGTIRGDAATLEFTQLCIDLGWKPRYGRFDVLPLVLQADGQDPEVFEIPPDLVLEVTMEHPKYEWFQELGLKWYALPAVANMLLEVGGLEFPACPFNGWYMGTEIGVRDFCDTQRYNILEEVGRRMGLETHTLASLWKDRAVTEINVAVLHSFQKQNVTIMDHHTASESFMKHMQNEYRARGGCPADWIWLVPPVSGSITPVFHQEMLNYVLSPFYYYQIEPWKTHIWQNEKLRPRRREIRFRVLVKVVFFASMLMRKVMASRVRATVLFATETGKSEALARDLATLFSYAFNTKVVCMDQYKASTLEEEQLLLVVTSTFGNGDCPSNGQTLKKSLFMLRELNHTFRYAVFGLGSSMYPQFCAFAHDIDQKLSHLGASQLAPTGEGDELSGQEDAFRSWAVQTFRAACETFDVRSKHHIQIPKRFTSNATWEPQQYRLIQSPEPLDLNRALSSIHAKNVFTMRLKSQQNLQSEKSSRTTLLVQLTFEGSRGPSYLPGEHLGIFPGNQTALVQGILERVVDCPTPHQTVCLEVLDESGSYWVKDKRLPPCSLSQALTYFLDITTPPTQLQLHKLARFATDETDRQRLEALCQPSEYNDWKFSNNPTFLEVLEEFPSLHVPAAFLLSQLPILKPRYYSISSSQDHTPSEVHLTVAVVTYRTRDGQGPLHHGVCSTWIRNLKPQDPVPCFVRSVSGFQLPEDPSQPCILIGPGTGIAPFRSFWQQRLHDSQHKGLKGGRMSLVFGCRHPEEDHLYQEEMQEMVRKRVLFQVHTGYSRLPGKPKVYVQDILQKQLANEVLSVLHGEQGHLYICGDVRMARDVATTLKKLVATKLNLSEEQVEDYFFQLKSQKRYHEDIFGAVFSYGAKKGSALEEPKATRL
Protocol: Thus EMT6 cytosolic preparations (i.e., cell-free solutions) were prepared and an enzyme activity was characterized which forms NO and citrulline from arginine. This reaction requires NADPH (FIG. 18 and 19) and other cofactors.
Incubation mixtures were 100 μl total volume containing: 40 μl cytosol (100,000×g supernatant), 2 mM L-arginine, 2 mM NADPH, 20 mM TRIS (pH 8.0) and a "cocktail" of protease inhibitors.
From kinetic studies an apparent Michaelis-Menton constant for L-arginine utilization by the enzyme was deduced. FIG. 20 is a Lineweaver-Burke plot for synthesis of nitrite from L-arginine by cytosol from stimulated EMT6 cells. The rate of nitrite formation was evaluated over a range of L-arginine (ARG) concentrations (from 0.03-2.0 mM) under conditions similar to that described for FIG. 18, except that incubates contained 50 μl cytosol in a total volume of 80 μl. Open and filled circles represent results obtained with each of two cytosol preparations. […] N^G -substituted arginine analogs were screened for precise quantitation of their ability to inhibit arginine-dependent NO formation by the EMT6 enzyme system.

anesthetized guinea pig = experiment: Pressor effect in the anesthetized guinea pig; format: in vivo; details: 1-10 mg/kg i.v. (L-NMA)
Source text: Points are mean changes in diastolic arterial pressure (±SEM; n=4-5). Control systolic and diastolic BP was 75±3 and 51±3 mm Hg, respectively.

[5] = tested on: isolated guinea pig heart; experiment: Histamine-induced nitrite release and coronary flow in isolated perfused guinea pig heart; details: histamine-elicited
Description: Histamine was administered as a rapid bolus injection into the aorta and net nitrite release during the subsequent 2.5 minutes was determined.

lethal ET shock animal = experiment: Reversal of lethal-dose endotoxin shock by N^G-aminoarginine; format: in vivo
Description: The reversal of ET shock (lethal dose) by N^G -aminoarginine (NAA) for 4 hrs. […] FIG. 26 depicts systemic arterial pressure (SAP) versus time (min). ET (2 mg/kg), a lethal dose, was infused over 60 min. and NAA administered at 97, 165, and 374 min. to maintain blood pressure. The animal was survived for 24 hours and then autopsied.

[6] = tested on: mongrel dogs with TNF-induced hypotension; experiment: TNF-induced hypotension in anesthetized dogs; format: in vivo, dog; details: dog, FIG. 25
Description: Recombinant human TNF specific activity 2×10^7 units/mg, was from the Niposn Chemical Corporation, Tokyo, Japan. TNF was administered at a dose of 10 mcg/kg in a volume of 10 ml of phosphate buffered saline containing 2 mgs/ml of dog albumin. […] Arginine was obtained from Sigma Chemical Company, St. Louis, Mo.
Four conditioned mongrel dogs, 2 males and 2 females, weighing 28 to 30 kgs, were studied. Care of the animals were in accordance with the recommendation of the American Association for Accreditation of Laboratory Animals [DHEW(DHHS) publication no. (NIH) 78-23, revised, 1978]. On the day of the experiment, the dogs were fasted overnight. They were anesthetized with phenobarbital (10 mg/kg). They were then intubated orally with a #10 fr. endotracheal tube and ventilated with a Harvard pump ventilator at a rate of 12 breaths per minute and a tidal volume of 15 ml/kg. An arterial line was percutaneously placed in the femoral artery on the day of the experiment.
Mean (electronic) and phasic systemic arterial pressures (SAP) were continuously recorded on a Hewlett-Packard recording system (model 7758B) using strain gauge manometers (Hewlett-Packard model 1290A) which were connected to the arterial line. Heart rate (HR) was determined from an EKG tracing and continuously recorded on the Hewlett-Packard recording system. Oxyhemoglobin saturation (SaO2) was obtained using a pulse oximeter (BIOX 111, Boulder, Colo.). continuous time-series records of SAP, HR, and SaO2 were obtained using a Lab Master analog-to-digital convertor (16 channel, 12 bit, 30 kHz; Scientific Solutions, Inc.) sampling at 55 Hz and storing the 6 sec averages on a magnetic disk.

L929 cells = experiment: Cytolytic activity of rh-TNF against Actinomycin D-treated L929 cells; format: cell-based, murine; details: murine L929 cells, in vitro
Description: TNF bioactivity was measured by the cytotoxicity towards murine L929 cells, in vitro.

[7] = tested on: systemic hypotension mediated by interleukin-1; experiment: Interleukin-1 mediated systemic hypotension; format: in vivo; details: FIG. 27
[8] = tested on: nitroglycerin-treated dogs; experiment: Nitroglycerin-induced hypotension in dogs (Example 4); format: in vivo, dog; details: Table 1, Study 2: Nitroglycerin-treated (n = 3)
Description: Animals: Studies were carried out on 12 conditioned mongrel dogs (9 males and 3 females) weighing 22-32 kg (avg=25.3 kg). Animal care was in accordance with the recommendations of the American Association for Accreditation of Laboratory Animal Care, and met all standards prescribed by the Guide for the Care and Use of Laboratory Animals (Guide for the Care and Use of Laboratory Animals (1978) Dept. of Health, Education and Welfare, Washington, D.C. (Publ. No. 78-23). Animal protocols were approved by The University of Texas Animal Welfare Committee. The dogs were fasted overnight prior to the day of experimentation. They were anesthetized with sodium pentobarbital (25 mg/kg I.v.). Dogs were then endotracheally intubated and ventilated with a piston-driven respirator (Harvard instruments) using room air at a tidal volume of 20 ml/kg and at a rate of 10 to 12 breaths per minute, adjusted to achieve a normal arterial pH and pCO2 (Instrumentation Laboratories 1L13012 pH/Blood Gas Analyzer). Catheters were placed percutaneously into the femoral and pulmonary arteries; In the latter, a flow-directed thermal-dilation catheter was used (Abbott Critical Care Systems).
Physiologic measurements: Mean SAP and heart rate were continuously monitored (Parametron 7048 Monitoring System, Roche) and stored on a magnetic disk using an analog-to-digital converter (Scientific Solutions, Inc.). Cardiac output (CO) was determined as the mean of six measurements by thermal-dilution. Systemic vascular resistance was calculated as (SAP X80)/CO and expressed as […].
Protocol: After the blood pressure and heart rate stabilized, endotoxin (40 ug/kg, in 10 ml of phosphate-buffered saline (PBS), pH 7.4) was infused i.v. over 2 minutes. This dose of endotoxin typically induces severe and often lethal cardiovascular collapse in the dog. Blood pressure was monitored, and when either SAP fell below 60 mmHg or a stable nadir in systemic arterial pressure (SAP) was maintained for 10 minutes, L-NMA was administered (20 mg/kg in 5 ml of PBS i.v. over 1 min.). In most experiments, L-arginine (400 mg/kg in 20 mi PBS) was administered ten minutes later by i.v. infusion over 2 minutes. In control experiments, dogs without prior exposure to endotoxin received L-NMA alone. To simulate the hypotension observed in dogs receiving endotoxin, one group of dogs received a continuous i.v. infusion of nitroglycerin (2 mg/ml) at a rate adjusted to maintain the SAP at 60-70 mm Hg. Nitroglycerin-treated dogs then received L-NMA (20 mg/kg) and 20 minutes later L-arginine was administered […].
In an additional series of experiments, blood pressure was reduced to 65 mm Hg by continuous i.v. infusion of nitroglycerin, a hypotensive agent that forms NO by an L-arginine and NO synthetase-independent mechanism.

[9] = tested on: murine brain endothelial cells (MBEC); experiment: Nitrite production by MBEC exposed to cytokines / immunomodulators (Griess assay); format: cell-based; details: IFN 100 U/ml, TNF 500 U/ml, IL-1 10 U/ml, endotoxin 1 μg/ml; 48 hours
[10] = murine endothelial cells, Gamma-Interferon (100 U/ml) and TNF (500 U/ml), in vitro

## CN=C(NC)NCCC[C@H](N)C(=O)O [Me,Me'--]
Rabbit aortic rings
  inhibition of ACh-induced vasorelaxation: not a good inhibitor

## N=C(NCCC[C@H](N)C(=O)OCc1ccccc1)N[N+](=O)[O-] [Nitro-L-Arginine benzyl ester]
[1]; [10]
  IC50: > 1200 µM

## CN(C)C(=N)NCCC[C@H](N)C(=O)O [Me,Me--]
Rabbit aortic rings
  inhibition of ACh-induced vasorelaxation: active inhibitor
[2]
  inhibition of EDRF/NO synthesis: served as inhibitors of EDRF/NO synthesis
[3]
  potency for inhibition of A23187-stimulated nitrite release: approximately equipotent to L-N^G -methylarginine

## CNC(=N)NCCC[C@@H](N)C(=O)O [D-NMA, reference compound]
[2]
  inhibition of EDRF/NO synthesis: not an inhibitor of EDRF/NO synthesis

## CCNC(=N)NCCC[C@H](N)C(=O)O [L-N^G -ethylarginine (L-NEA), L-N^G -ethylarginine]
[4]; Lineweaver-Burke
  mode of inhibition: competitive inhibitor
[4]; compared with NMMA, FIG. 22
  fold less active than NMMA: approximately 10 -fold
Anesthetized guinea pig
  effect on diastolic BP / pressor effect (words): sustained pressor effect

## NCCc1c[nH]cn1 [histamine, reference compound]
[5]
  effect on coronary flow (vasodilation): dose-dependent increase in coronary flow

## COC(=O)[C@@H](N)CCCNC(=N)N[N+](=O)[O-] [Nitro-L-Arginine methyl ester]
[1]
  IC50: 1830 µM

## N=C(NN)NCCC[C@H](N)C(=O)O [Aminoarginine, L-N^G -aminoarginine]
Lethal ET shock animal; ET 2 mg/kg, multiple NAA doses, then autopsied
  survival: 24 h
Lethal ET shock animal; liver, lungs, heart, brain, bowel or kidney
  pathological changes at autopsy: No pathological changes
[6]
  effectiveness in reversing TNF hypotension vs NMMA: more effective than NMMA
[2]; compounds tested thus far
  activity ranking in inhibition of ACh-induced relaxation: greatest activity
[2]
  inhibition of EDRF/NO synthesis: served as inhibitors of EDRF/NO synthesis
[1]
  IC50: 110 µM
  potency ranking as inhibitor of nitric oxide production: most potent inhibitor of nitric oxide production measured thusfar
[1]; listed as N^G -aminoarginine
  potency ranking as inhibitor of nitric oxide production: most potent derivative tested
L929 cells
  effect on cytolytic effect of TNF towards tumor cells: did not alter the cytolytic effect of TNF
[7]
  reversal of IL-1 mediated hypotension: reverse systemic hypotension

## N=C(NCCC[C@@H](N)C(=O)O)N[N+](=O)[O-] [Nitro-D-Arginine]
[1]; [10]
  IC50: > 4500 µM

## N=C(NCCC[C@H](N)C(=O)O)N[N+](=O)[O-] [Nitro-L-Arginine, N^G -nitroarginine]
[2]
  inhibition of EDRF/NO synthesis: served as inhibitors of EDRF/NO synthesis
[1]; [10]
  IC50: 2120 µM

## O=[N+]([O-])OCC(CO[N+](=O)[O-])O[N+](=O)[O-] [Nitroglycerin]
[8]
  Cardiac Output: 2.72 ± 0.27 L/min
  Heart Rate: 137.3 ± 5.0 beats/min
  Systemic Arterial Pressure: 64.7 ± 2.7 mmHg
  Systemic Vascular Resistance: 1924 ± 132 dynes-sec/cm^5

## CC(=O)N[C@H]1C(O)O[C@H](CO)[C@@H](O)[C@@H]1O[C@H](C)C(=O)N[C@@H](C)C(=O)N[C@H](CCC(=O)O)C(N)=O (stereo partly drawn) [muramyl dipeptide (MDP), muramyl dipeptide, reference compound]
[9]
  effect on nitrite production by MBEC: Neither muramyl dipeptide (MDP) or Il-2 alone, or in combination with IFN effected nitrite production

## COC(=O)[C@H](N)CCCNC(=N)N[N+](=O)[O-] [Nitro-D-Arginine methyl ester]
[1]
  IC50: > 4500 µM
